Reference: publication PMC11457865, “The HIV latency reversing agent HODHBt inhibits the phosphatases PTPN1 and PTPN2” (JCI Insight, 2024)

Experiments:
[1] = target: T1, PTPN2 (TC-PTP) (Homo sapiens, UniProt P17706); test: fluorogenic phosphatase assay with Lineweaver-Burk kinetics; also CETSA on purified catalytic domain (destabilization), CD4 T cell lysates, and TPP in live PBMCs and K562 cells; type: biochemical
T1 construct: catalytic domain (recombinant GST-tag TC-PTP, BPS Bioscience 30013)
T1 sequence (P17706 1-317 limits assumed): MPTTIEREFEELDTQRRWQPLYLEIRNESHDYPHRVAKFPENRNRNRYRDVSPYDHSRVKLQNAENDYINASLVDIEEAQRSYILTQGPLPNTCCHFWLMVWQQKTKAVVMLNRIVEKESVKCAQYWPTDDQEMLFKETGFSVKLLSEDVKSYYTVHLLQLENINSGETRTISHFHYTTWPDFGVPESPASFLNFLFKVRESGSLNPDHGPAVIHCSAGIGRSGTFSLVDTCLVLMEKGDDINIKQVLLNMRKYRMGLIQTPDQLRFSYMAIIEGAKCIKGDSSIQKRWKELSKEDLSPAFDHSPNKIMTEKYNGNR

[2] = target: T2, PTPN1 (PTP1B) (Homo sapiens, UniProt P18031); test: fluorogenic phosphatase assay with Lineweaver-Burk kinetics; also CETSA on purified catalytic domain, CD4 T cell lysates, and TPP in live PBMCs and K562 cells; type: biochemical
T2 construct: catalytic domain (fluorogenic PTP1B catalytic domain assay kit, BPS Bioscience 79764; purified catalytic domain 1-301 for CETSA)
T2 sequence (P18031 1-301): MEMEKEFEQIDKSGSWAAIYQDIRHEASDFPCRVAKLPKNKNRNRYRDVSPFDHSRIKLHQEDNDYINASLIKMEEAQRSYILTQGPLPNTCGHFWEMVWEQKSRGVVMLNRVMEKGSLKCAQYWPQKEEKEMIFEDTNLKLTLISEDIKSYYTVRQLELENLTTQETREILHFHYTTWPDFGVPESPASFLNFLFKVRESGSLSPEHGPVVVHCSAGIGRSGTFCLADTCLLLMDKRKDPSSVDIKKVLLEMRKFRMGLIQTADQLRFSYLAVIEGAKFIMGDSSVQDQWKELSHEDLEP

O=c1c2ccccc2nnn1O [HODHBt, 3-Hydroxy-1,2,3-benzotriazin-4(3H)-one]
IC50 [1]: 544 µM
IC50 [2]: 601 µM
